{
  "source": "patent EP3928779A1",
  "about": "(Chugai Seiyaku Kabushiki Kaisha, priority 2014, dated 2016)",
  "data": [
    {"tested_on": "rat small-intestinal brush border membrane vesicles", "test": "Inhibitory effect on 33PO4 uptake into rat small-intestinal brush border membrane vesicles (rapid filtration method)", "type": "biochemical", "details": "33PO4 uptake into rat small-intestinal BBMVs; test compound 1 µM; reacted for 60 seconds", "procedure,_shortened": "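Uptake of ^33PO4 was measured by rapid filtration and liquid scintillation counting of filter-retained vesicles, after quenching with ice-cold 110 mM NaCl/1 mM KH2PO4/10 mM HEPES pH 7.5. Vesicles were brush border membranes from the upper small intestine of female Wistar rats aged 4–5 weeks.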", "units": {"Rate of uptake inhibition (%) (1 µM)": "%"}, "values": [
      {"compound": "CN1N(Cc2ccc(OCCOCCOCCOCCNC(=O)[C@@H](O)[C@H](O)[C@@H](O)[C@@H](O)CO)c(F)c2F)C(=O)C(C(=O)Nc2ccc(C(F)(F)F)cc2-c2cc(C(F)(F)F)ncn2)=C(O)C12CCCC2", "note": "[Example 428, 7-[[2,3-Difluoro-4-[2-[2-[2-[2-[[(2S,3R,4S,5S)-2,3,4,5,6-pentahydroxyhexanoyl]amino]ethoxy]ethoxy]ethoxy]ethoxy]phenyl]methyl]-10-hydroxy-6-methyl-8-oxo-N-[4-(trifluoromethyl)-2-[6-(trifluoromethyl)pyrimidin-4-yl]phenyl]-6,7-diazaspiro[4. 5]dec-9-ene-9-carboxamide]", "Rate of uptake inhibition (%) (1 µM)": 14},
      {"compound": "COCCN(C)CCOCCOc1ccc(CN2C(=O)C(C(=O)Nc3ccc(C(F)(F)F)cc3-c3cc(C(F)(F)F)ncn3)=C(O)C3(CCCC3)N2C)c(F)c1F", "note": "[Example 429, 7-[[2,3-Difluoro-4-[2-[2-[2-methoxyethyl(methyl)amino]ethoxy]ethoxy]phenyl]methyl]-10-hydroxy-6-methyl-8-oxo-N-[4-(trifluoromethyl)-2-[6-(trifluoromethyl)pyrimidin-4-yl]phenyl]-6,7-diazaspiro[4.5]dec-9-ene-9-carboxamide]", "Rate of uptake inhibition (%) (1 µM)": 41},
      {"compound": "COCCN(C)CCOCCOCCOc1ccc(CN2C(=O)C(C(=O)Nc3ccc(C(F)(F)F)cc3-c3cc(C(F)(F)F)ncn3)=C(O)C3(CCCC3)N2C)c(F)c1F", "note": "[Example 430]", "Rate of uptake inhibition (%) (1 µM)": 29},
      {"compound": "COCCN(C)CCOCCOCCOCCOc1ccc(CN2C(=O)C(C(=O)Nc3ccc(C(F)(F)F)cc3-c3cc(C(F)(F)F)ncn3)=C(O)C3(CCCC3)N2C)c(F)c1F", "note": "[Example 431]", "Rate of uptake inhibition (%) (1 µM)": 26},
      {"compound": "COCCN(C)CCOCCOCCOCCOCCOc1ccc(CN2C(=O)C(C(=O)Nc3ccc(C(F)(F)F)cc3-c3cc(C(F)(F)F)ncn3)=C(O)C3(CCCC3)N2C)c(F)c1F", "note": "[Example 432]", "Rate of uptake inhibition (%) (1 µM)": 11},
      {"compound": "CN1N(Cc2ccc(OCCNCCS(=O)(=O)O)c(F)c2F)C(=O)C(C(=O)Nc2ccc(C(F)(F)F)cc2-c2cc(C(F)(F)F)ncn2)=C(O)C12CCCC2", "note": "[Example 435, 2-[2-[2,3-Difluoro-4-[[10-hydroxy-6-methyl-8-oxo-9-[[4-(trifluoromethyl)-2-[6-(trifluoromethyl)pyrimidin-4-yl]phenyl]carbamoyl]-6,7-diazaspiro[4.5]dec-9-en-7-yl]methyl]phenoxy]ethylamino]ethanesulfonic acid]", "Rate of uptake inhibition (%) (1 µM)": 11},
      {"compound": "COCCN(C)CCOc1c(I)cc(CN2C(=O)C(C(=O)Nc3ccc(C(F)(F)F)cc3-c3cc(C(F)(F)F)ncn3)=C(O)C3(CCCC3)N2C)c(F)c1F", "note": "[Example 437, 7-[[2,3-Difluoro-5-iodo-4-[2-[2-methoxyethyl(methyl)amino]ethoxy]phenyl]methyl]-10-hydroxy-6-methyl-8-oxo-N-[4-(trifluoromethyl)-2-[6-(trifluoromethyl)pyrimidin-4-yl]phenyl]-6,7-diazaspiro[4.5]dec-9-ene-9-carboxamide]", "Rate of uptake inhibition (%) (1 µM)": 45},
      {"compound": "COCCCN(C)C(=O)c1cc(CN2C(=O)C(C(=O)Nc3ccc(C(F)(F)F)cc3-c3cc(C(F)(F)F)ncn3)=C(O)C3(CCCC3)N2C)c(F)c(F)c1OCCN(C)CCOC", "note": "[Example 438, 7-[[2,3-Difluoro-4-[2-[2-methoxyethyl(methyl)amino]ethoxy]-5-[3-methoxypropyl(methyl)carbamoyl]phenyl]methyl]-10-hydroxy-6-methyl-8-oxo-N-[4-(trifluoromethyl)-2-[6-(trifluoromethyl)pyrimidin-4-yl]phenyl]-6,7-diazaspiro[4.5]dec-9-ene-9-carboxamide]", "Rate of uptake inhibition (%) (1 µM)": 33},
      {"compound": "COCCOc1cc(NC(=O)C2=C(O)C3(CCCC3)N(C)N(Cc3ccc(OCCN(C)CCOC)c(F)c3F)C2=O)c(-c2ncnc(C(F)(F)F)c2C)cc1C(F)(F)F", "note": "[Example 439, 7-[[2,3-Difluoro-4-[2-[2-methoxyethyl(methyl)amino]ethoxy]phenyl]methyl]-10-hydroxy-N-[5-(2-methoxyethoxy)-2-[5-methyl-6-(trifluoromethyl)pyrimidin-4-yl]-4-(trifluoromethyl)phenyl]-6-methyl-8-oxo-6,7-diazaspiro[4.5]dec-9-ene-9-carboxamide]", "Rate of uptake inhibition (%) (1 µM)": 35},
      {"compound": "COCCN(C)CCOc1c(-c2cccnc2)cc(CN2C(=O)C(C(=O)Nc3ccc(C(F)(F)F)cc3-c3cc(C(F)(F)F)ncn3)=C(O)C3(CCCC3)N2C)c(F)c1F", "note": "[Example 440, 9-[[2,3-Difluoro-4-[2-[2-methoxyethyl(methyl)amino]ethoxy]-5-(3-pyridinyl)phenyl]methyl]-6-hydroxy-10-methyl-8-oxo-N-[4-(trifluoromethyl)-2-[6-(trifluoromethyl)pyrimidin-4-yl]phenyl]-9,10-diazaspiro[4.5]dec-6-ene-7-carboxamide]", "Rate of uptake inhibition (%) (1 µM)": 28},
      {"compound": "CN(C[C@H](O)[C@@H](O)[C@H](O)[C@H](O)CO)C(=O)COCCOCCOCCOCCOc1ccc(CN2C(=O)C(C(=O)Nc3ccc(C(F)(F)F)cc3-c3cc(C(F)(F)F)ncn3)=C(O)C3(CCCC3)N2C)c(F)c1F", "note": "[Example 441, 7-[[2,3-Difluoro-4-[2-[2-[2-[2-[2-[methyl-[(2S,3R,4R,5R)-2,3,4,5,6-pentahydroxyhexyl]amino]-2-oxoethoxy]ethoxy]ethoxy]ethoxy]ethoxy]phenyl]methyl]-10-hydroxy-6-methyl-8-oxo-N-[4-(trifluoromethyl)-2-[6-(trifluoromethyl)pyrimidin-4-yl]phenyl]-6,7-diazaspiro[4.5]dec-9-ene-9-carboxamide]", "Rate of uptake inhibition (%) (1 µM)": 22},
      {"compound": "COCCN(C)CCN(C)c1ccc(CN2C(=O)C(C(=O)Nc3ccc(C(F)(F)F)cc3-c3cc(C(F)(F)F)ncn3)=C(O)C3(CCCC3)N2C)c(F)c1F", "note": "[Example 442]", "Rate of uptake inhibition (%) (1 µM)": 24},
      {"compound": "CCN(CCN(C)CCOC)c1ccc(CN2C(=O)C(C(=O)Nc3ccc(C(F)(F)F)cc3-c3cc(C(F)(F)F)ncn3)=C(O)C3(CCCC3)N2C)c(F)c1F", "note": "[Example 443]", "Rate of uptake inhibition (%) (1 µM)": 28},
      {"compound": "CCCN(CCN(C)CCOC)c1ccc(CN2C(=O)C(C(=O)Nc3ccc(C(F)(F)F)cc3-c3cc(C(F)(F)F)ncn3)=C(O)C3(CCCC3)N2C)c(F)c1F", "note": "[Example 444]", "Rate of uptake inhibition (%) (1 µM)": 24},
      {"compound": "COCCN(C)CCN(c1ccc(CN2C(=O)C(C(=O)Nc3ccc(C(F)(F)F)cc3-c3cc(C(F)(F)F)ncn3)=C(O)C3(CCCC3)N2C)c(F)c1F)C(C)C", "note": "[Example 445]", "Rate of uptake inhibition (%) (1 µM)": 29},
      {"compound": "CN1N(Cc2ccc(NCCCN3CCOCC3)c(F)c2F)C(=O)C(C(=O)Nc2ccc(C(F)(F)F)cc2-c2cc(C(F)(F)F)ncn2)=C(O)C12CCCC2", "note": "[Example 446]", "Rate of uptake inhibition (%) (1 µM)": 31},
      {"compound": "CN1N(Cc2ccc(NCCN3CCOCC3)c(F)c2F)C(=O)C(C(=O)Nc2ccc(C(F)(F)F)cc2-c2cc(C(F)(F)F)ncn2)=C(O)C12CCCC2", "note": "[Example 447]", "Rate of uptake inhibition (%) (1 µM)": 50},
      {"compound": "(4aR)-1-[(2,3-Difluorophenyl)methyl]-4-hydroxy-4a-methyl-N-[5-methyl-2-(trifluoromethyl)furan-3-yl]-2-oxo-6,7-dihydro-5H-pyrrolo[1,2-b]pyridazine-3-carboxamide [Example 7]", "Rate of uptake inhibition (%) (1 µM)": 69},
      {"compound": "(4aR)-1-[(2,3-Difluorophenyl)methyl]-4-hydroxy-N-[5-methyl-2-(trifluoromethyl)furan-3-yl]-2-oxo-4a-propyl-6,7-dihydro-5H-pyrrolo[1,2-b]pyridazine-3-carboxamide [Example 12]", "Rate of uptake inhibition (%) (1 µM)": 27},
      {"compound": "(4aR)-1-[(2,3-Difluorophenyl)methyl]-4a-ethyl-4-hydroxy- N-[5-methyl-2-(trifluoromethyl)furan-3-yl]-2-oxo-6,7-dihydro-5H-pyrrolo[1,2-b]pyridazine-3-carboxamide [Example 10]", "Rate of uptake inhibition (%) (1 µM)": 37},
      {"compound": "(4aR)-1-[(3-Fluorophenyl)methyl]-4-hydroxy-4a-methyl-N-[5-methyl-2-(trifluoromethyl)furan-3-yl]-2-oxo-6,7-dihydro-5H-pyrrolo[1,2-b]pyridazine-3-carboxamide [Example 6]", "Rate of uptake inhibition (%) (1 µM)": 48},
      {"compound": "(4aR)-1-[(3-Fluorophenyl)methyl]-4-hydroxy-N-[5-methyl-2-(trifluoromethyl)furan-3-yl]-2-oxo-4a-propyl-6,7-dihydro-5H-pyrrolo[1,2-b]pyridazine-3-carboxamide [Example 11]", "Rate of uptake inhibition (%) (1 µM)": 22},
      {"compound": "(4aR)-4a-Ethyl-1-[(3-fluorophenyl)methyl]-4-hydroxy-N-[5-methyl-2-(trifluoromethyl)furan-3-yl]-2-oxo-6,7-dihydro-5H-pyrrolo[1,2-b]pyridazine-3-carboxamide [Example 9]", "Rate of uptake inhibition (%) (1 µM)": 63},
      {"compound": "(4aR)-N-[2-(6-Cyano-5-methoxypyridin-1-yl)-4-(trifluoromethyl)phenyl]-1-[(2,3-difluorophenyl)methyl]-4-hydroxy-4a-methyl-2-oxo-6,7-dihydro-5H-pyrrolo[1,2-b] pyridazine-3-carboxamide [Example 114]", "Rate of uptake inhibition (%) (1 µM)": 86},
      {"compound": "(4aS)-1-[(2,3-Difluorophenyl)methyl]-6,6-difluoro-4-hydroxy-N-[5-methyl-2-(trifluoromethyl)furan-3-yl]-2-oxo-5,7-dihydro-4aH-pyrrolo[1,2-b]pyridazine-3-carboxamide [Example 5]", "Rate of uptake inhibition (%) (1 µM)": 54},
      {"compound": "(4aS)-1-[(3-Fluorophenyl)methyl]-4-hydroxy-4a-methyl-N-[5-methyl-2-(trifluoromethyl)furan-3-yl]-2-oxo-6,7-dihydro-5H-pyrrolo[1,2-b]pyridazine-3-carboxamide [Example 8]", "Rate of uptake inhibition (%) (1 µM)": 37},
      {"compound": "(4aS)-1-[(3-Fluorophenyl)methyl]-4-hydroxy-N-[5-methyl-2-(trifluoromethyl)furan-3-yl]-2-oxo-5,6,7,8-tetrahydro-4aH-pyrido[1,2-b]pyridazine-3-carboxamide [Example 16]", "Rate of uptake inhibition (%) (1 µM)": 38},
      {"compound": "(4aS)-1-[(5,6-Difluoro-1H-indol-7-yl)methyl]-4-hydroxy-N-[5-methyl-2-(trifluoromethyl)furan-3-yl]-2-oxo-5,6,7,8-tetrahydro-4aH-pyrido[1,2-b]pyridazine-3-carboxamide [Example 17]", "Rate of uptake inhibition (%) (1 µM)": 33}
    ]}
  ]
}
